# Results from the METLIN SMRT retention time set (Domingo-Almenara et al. 2019).
# Assay: gradient 5% acetonitrile 3 min, to 50% in 2 min, to 85% in 15 min, held 3 min, 100 µL/min
# Conditions: column: Zorbax Extend-C18 2.1 x 50 mm; eluents: water / acetonitrile, 0.1% formic acid
# In short: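 A Zorbax Extend-C18 column (2.1 × 50 mm, 1.8 μm) run at 100 μL/min with water and acetonitrile, both containing 0.1% formic acid, separated mixtures of ~100 pure standards. The HPLC was coupled to a quadrupole time-of-flight mass spectrometer operated in positive and negative ionization mode, with dead and dwell volumes of 40 μL and 900 μL. Each retention time was taken from a computationally picked adduct peak that was then manually inspected.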
row,RP-LC retention time,SMILES
1,695 s,Cc1ccc(NS(=O)(=O)c2cc(-c3[nH]ncc3C(=O)N3CCOCC3)oc2C)cc1
2,730 s,O=C(Nc1ccc2c(c1)OCO2)C1CCc2sc(C(=O)N3CCCC3)cc2C1 (configuration not stated)
3,917 s,CC1CCC(NC(=O)c2nnc(-c3ccc(S(=O)(=O)N4CCOCC4)cc3)o2)CC1 (configuration not stated)
4,932 s,C=CCN1C(=O)C(C)(C)COc2cc(NS(=O)(=O)C3CCCCC3)ccc21
5,719 s,O=C(NC1CCCC1)N1CCN(c2ncccc2-c2nnc(C3CC3)o2)CC1
6,664 s,Cc1ccc(NC(=O)CSc2ccc(N3CCCC(C(=O)NC4CC4)C3)nn2)cc1F (configuration not stated)
7,674 s,CC1(C(=O)NCc2cc(F)ccc2F)CCCCC(=O)N1 (configuration not stated)
8,640 s,O=C(Nc1cnn(-c2ncc(N3CCSCC3)cn2)c1)C1CCOC1 (configuration not stated)
9,641 s,COc1cc(NC(=O)Cn2nc(C(=O)N3CCCC3)c3ccccc32)cc(OC)c1
10,910 s,O=C(C1CCCCC1)N1CCN(c2cc(-c3ccc(Cl)cc3)[nH]n2)CC1
11,638 s,CC(C)S(=O)(=O)N1CCC2(CC1)NCCCN=C2Nc1cccc(F)c1
12,567 s,NC(=O)CSc1nnc(N2CCN(C(=O)c3ccccc3[N+](=O)[O-])CC2)s1
13,1110 s,Cc1cc(C)c(NC(=O)C2CCCN(S(=O)(=O)c3cc(-c4noc(C)n4)cs3)C2)c(C)c1 (configuration not stated)

# Further lines, the molecule ahead of its results:
row,SMILES,RP-LC retention time
1,Cc1ccc(N2CCOCC2)c2c1C(=O)c1ccccc1C2=O,927 s
2,O=C(NCc1ccccc1)Nc1c(-c2ccccc2)nc2ccccn12,626 s
3,OC(COc1ccc(Cl)cc1)CN1CCN(c2cccc(Cl)c2)CC1 (configuration not stated),866 s
4,CCCCn1nc(-c2nc(-c3ccc(F)cc3)no2)ccc1=O,1100 s
5,COc1cccc(-c2nnc(Cc3nc(-c4ccncc4)no3)o2)c1,739 s
6,Cc1cccc(CNC(=O)c2c(C)sc3ccn(C)c(=O)c23)c1,787 s
7,COC(=O)c1[nH]c(C)c(C(=O)CN(CC2CCCO2)C(=O)c2ccc(OC)cc2)c1C (configuration not stated),1030 s
8,O=S(=O)(c1cccs1)N1CCc2nc(-c3ccc(Cl)cc3)ncc2C1,1150 s
9,CCC[C@H](NC(=O)/C(C#N)=C/c1cccc(Br)n1)c1ccccc1,684 s
10,CCOc1ccc(CNC(=O)C2CCCN(c3ccc(=O)n(-c4ccc(F)cc4)n3)C2)cc1 (configuration not stated),869 s
11,Cc1oc(-c2ccccc2)nc1Cn1ccn2nc(-c3cccs3)cc2c1=O,1060 s
12,CCOc1ccc(-c2nc(C3CC(=O)N(c4ccc(F)cc4)C3)no2)cc1 (configuration not stated),1010 s
13,O=C(c1ccc2[nH]ccc2c1)N1CCN(c2cc(-c3ccc(Cl)cc3)[nH]n2)CC1,798 s
14,COCCN(Cc1ccc(C(C)C)cc1)Cc1cc(=O)n2cc(Cl)ccc2n1,628 s
15,Cc1ccc(NS(=O)(=O)c2cc(-c3[nH]ncc3C(=O)N(C)C)oc2C)cc1C,729 s
16,Cc1ccc(-c2nc(CCN(C)C(=O)Nc3cc(F)ccc3F)no2)cc1,994 s
17,COc1ccc(C(=O)N(CCS(=O)(=O)N2CCNCC2)CC2CCCO2)cc1 (configuration not stated),609 s
18,COCCNC(=O)c1nc2cccnc2n(C)c1=O,585 s
19,COC(=O)C1=CN(c2ccc(Cl)cc2)c2ccccc2S1(=O)=O,864 s
20,Cc1ccc(C)c(NC(=O)Nc2ccc3nncn3c2)c1,747 s
21,COC(=O)C1=CN(c2ccccc2)c2cc(F)c(F)cc2S1(=O)=O,858 s
22,CCn1ccc2sc(C)c(C(=O)NCc3ccccc3Br)c2c1=O,926 s
23,CCNC(=O)N1CC(Oc2cccc(-c3nc(-c4ccccc4)no3)c2)C1,939 s
24,CN(C)c1ccc(N2CCC(C(=O)NCCc3c[nH]c4ccccc34)CC2)nn1,621 s
